Measured values from patent US20050154230A1, “Urea derivatives” (Bayer HealthCare AG, priority 2001, published 2005).

target: T1, human VR1 (Homo sapiens, UniProt Q8NER1); experiment: Capsaicin-induced Ca2+ influx in the human VR1-transfected CHO cell line (Assay 1); assay type: cell-based; details: not given
T1 construct: expressed in transfected cells
Protocol: [Measurement of Capsaicin-Induced Ca^2+ Influx in the Human VR1-Transfected CHO Cell Line] (Assay 1)
(1) Establishment of the Human VR1-CHOluc9aeq Cell Line
The cloned hVR1 cDNA was constructed with pcDNA3 vector and transfected into a CHOluc9aeq cell line. The cell line contains aequorin and CRE-luciferase reporter genes as read-out signals. The transfectants were cloned by limiting dilution in selection medium (DMEM/F12 medium (Gibco BRL) supplemented with 10% FCS, 1.4 mM Sodium pyruvate, 20 mM HEPES, 0.15% Sodium bicarbonate, 100 U/ml penicillin, 100 μg/ml streptomycin, 2 mM glutamine, non-essential amino acids and 2 mg/ml G418). Ca^2+ influx was examined in the capsaicin-stimulated clones. […] The human VR1-CHOluc9aeq cells were maintained in the selection medium and passaged every 3-4 days at 1-2.5×10^5 cells/flask ([…]).
(2) Measurement of Ca^2+ Influx Using FDSS-3000
Human VR1-CHOluc9aeq cells were suspended in a culture medium which is the same as the selection medium except for G418 and seeded at a density of 1,000 cells per well into 384-well plates (black walled clear-base/Nalge Nunc International). […] After washing twice with assay buffer the cells were incubated with a test compound or vehicle for 20 min at 25° C. […] Integral R was calculated and compared with controls.

T1 sequence (Q8NER1 whole entry): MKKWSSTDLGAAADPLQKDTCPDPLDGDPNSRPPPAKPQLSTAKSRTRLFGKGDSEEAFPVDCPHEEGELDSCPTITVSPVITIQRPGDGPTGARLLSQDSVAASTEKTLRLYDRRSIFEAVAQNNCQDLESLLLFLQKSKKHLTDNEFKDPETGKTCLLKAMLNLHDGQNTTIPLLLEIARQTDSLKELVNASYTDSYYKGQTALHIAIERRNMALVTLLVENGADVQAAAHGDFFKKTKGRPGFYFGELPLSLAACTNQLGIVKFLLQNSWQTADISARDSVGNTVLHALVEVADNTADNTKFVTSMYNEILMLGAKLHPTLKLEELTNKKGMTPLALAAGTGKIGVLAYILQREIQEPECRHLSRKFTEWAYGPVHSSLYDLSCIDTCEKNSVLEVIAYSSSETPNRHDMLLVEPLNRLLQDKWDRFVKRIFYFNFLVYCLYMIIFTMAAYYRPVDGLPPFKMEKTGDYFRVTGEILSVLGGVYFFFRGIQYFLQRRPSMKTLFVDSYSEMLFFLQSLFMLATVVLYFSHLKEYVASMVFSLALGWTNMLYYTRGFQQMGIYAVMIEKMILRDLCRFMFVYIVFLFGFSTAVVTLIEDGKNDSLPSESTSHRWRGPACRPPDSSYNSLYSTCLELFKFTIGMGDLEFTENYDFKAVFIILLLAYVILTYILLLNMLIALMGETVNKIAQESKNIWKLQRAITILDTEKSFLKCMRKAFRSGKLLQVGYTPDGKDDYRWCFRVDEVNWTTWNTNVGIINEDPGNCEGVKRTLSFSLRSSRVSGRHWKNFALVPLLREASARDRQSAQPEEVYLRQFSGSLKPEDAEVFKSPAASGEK

Row | Structure (SMILES) | IC50
1 | O=C(Nc1cccc(OC(F)(F)F)c1)Nc1ccccc1CCO [Example 2-2, N-[2-(2-hydroxyethyl)phenyl]-N′-[3(trifluoromethoxy)phenyl]urea] | < 0.1 µM
2 | COc1cc(CNC(=O)Nc2ccc(Oc3ccccc3)cc2)ccc1O [Example 76] | < 0.1 µM

same assay, conditions: human VR1-CHOluc9aeq cells, 10 nM capsaicin; compound purity about 40 to 90%; read-out: hVR1 class

Row | Structure (SMILES) | IC50
3 | CSc1cccc(NC(=O)NCc2ccc3c(c2)OCO3)c1 [Example 16] | 0.5 to 1 µM
4 | O=C(NCc1ccc2c(c1)OCO2)Nc1ccccc1 [Example 17] | 0.5 to 1 µM
5 | COc1cccc(NC(=O)NCc2ccc3c(c2)OCO3)c1 [Example 18] | 0.5 to 1 µM
6 | O=C(NCc1ccc2c(c1)OCO2)Nc1ccc(F)cc1 [Example 19] | 0.5 to 1 µM
7 | COc1cc2c(cc1OC)CN(C(=O)Nc1cccc(SC)c1)CC2 [Example 20] | 0.5 to 1 µM
8 | COc1cc2c(cc1OC)CN(C(=O)Nc1ccccc1)CC2 [Example 21] | 0.5 to 1 µM
9 | COc1cccc(NC(=O)N2CCc3cc(OC)c(OC)cc3C2)c1 [Example 22] | 0.5 to 1 µM
10 | COc1cc2c(cc1OC)CN(C(=O)Nc1ccc(F)cc1)CC2 [Example 23] | 0.5 to 1 µM
11 | COCOc1cccc(CNC(=O)Nc2ccccc2)c1 [Example 24] | 0.5 to 1 µM
12 | COCOc1cccc(CNC(=O)Nc2cccc(OC)c2)c1 [Example 25] | 0.5 to 1 µM
13 | COCOc1cccc(CNC(=O)Nc2cccc(SC)c2)c1 [Example 26] | 0.5 to 1 µM
14 | COCOc1cccc(CNC(=O)Nc2ccc(F)cc2)c1 [Example 27] | 0.5 to 1 µM
15 | O=C(NCc1cccc(O)c1)Nc1ccccc1 [Example 28] | 0.5 to 1 µM
16 | CSc1cccc(NC(=O)NCc2cccc(O)c2)c1 [Example 29] | 0.5 to 1 µM
17 | COc1cccc(NC(=O)NCc2cccc(O)c2)c1 [Example 30] | 0.5 to 1 µM
18 | O=C(NCc1cccc(O)c1)Nc1ccc(F)cc1 [Example 31] | 0.5 to 1 µM
19 | COc1cc(CNC(=O)Nc2ccccc2)ccc1O [Example 33] | 0.5 to 1 µM
20 | COc1ccc(CNC(=O)Nc2cccc(SC)c2)cc1O [Example 35] | 0.5 to 1 µM
21 | COc1ccc(CNC(=O)Nc2ccccc2)cc1O [Example 36] | 0.5 to 1 µM

Row | Structure (SMILES) | IC50
22 | CSc1cccc(NC(=O)NCc2cccc(Cl)c2)c1 [Example 37] | 0.5 to 1 µM
23 | O=C(NCc1cccc(Cl)c1)Nc1ccccc1 [Example 38] | 0.5 to 1 µM
24 | COc1cccc(NC(=O)NCc2cccc(Cl)c2)c1 [Example 39] | 0.5 to 1 µM
25 | O=C(NCc1cccc(Cl)c1)Nc1ccc(F)cc1 [Example 40] | 0.5 to 1 µM
26 | CSc1cccc(NC(=O)NCc2cccc(F)c2)c1 [Example 45] | 0.5 to 1 µM
27 | O=C(NCc1cccc(F)c1)Nc1ccccc1 [Example 46] | 0.5 to 1 µM
28 | COc1cccc(NC(=O)NCc2cccc(F)c2)c1 [Example 47] | 0.5 to 1 µM
29 | O=C(NCc1cccc(F)c1)Nc1ccc(F)cc1 [Example 48] | 0.5 to 1 µM
30 | CSc1cccc(NC(=O)NCc2ccc(F)c(F)c2)c1 [Example 49] | 0.5 to 1 µM
31 | O=C(NCc1ccc(F)c(F)c1)Nc1ccccc1 [Example 50] | 0.5 to 1 µM
32 | COc1cccc(NC(=O)NCc2ccc(F)c(F)c2)c1 [Example 51] | 0.5 to 1 µM
33 | O=C(NCc1ccc(F)c(F)c1)Nc1ccc(F)cc1 [Example 52] | 0.5 to 1 µM
34 | COc1cc(CNC(=O)Nc2cccc(C(C)=O)c2)ccc1O [Example 59] | 0.5 to 1 µM
35 | COC(=O)c1ccccc1NC(=O)NCc1ccc(O)c(OC)c1 [Example 61] | 0.5 to 1 µM
36 | COc1cc(CNC(=O)Nc2ccc([N+](=O)[O-])cc2Cl)ccc1O [Example 67] | 0.5 to 1 µM
37 | CNS(=O)(=O)c1ccc2c(c1)CN(C(=O)Nc1ccc(Cl)c(C(F)(F)F)c1)CC2 [Example 85] | 0.5 to 1 µM
38 | CN(C)S(=O)(=O)c1ccc2c(c1)CN(C(=O)Nc1ccc(Cl)c(C(F)(F)F)c1)CC2 [Example 86] | 0.5 to 1 µM
39 | CN(C)CCNS(=O)(=O)c1ccc2c(c1)CN(C(=O)Nc1ccc(Cl)c(C(F)(F)F)c1)CC2 [Example 87] | 0.5 to 1 µM
40 | CN(C)S(=O)(=O)c1ccc2c(c1)CN(C(=O)Nc1ccc(Oc3ccccc3)cc1)CC2 [Example 88] | 0.5 to 1 µM

Row | Structure (SMILES) | IC50
41 | O=C(Nc1ccc(Oc2ccccc2)cc1)N1CCc2ccc(S(=O)(=O)N3CCN(CCO)CC3)cc2C1 [Example 89] | 0.5 to 1 µM
42 | CS(=O)(=O)Nc1ccc2c(c1)CN(C(=O)NCc1ccc(Br)cc1)CC2 [Example 90] | 0.5 to 1 µM
43 | CS(=O)(=O)Nc1ccc2c(c1)CN(C(=O)Nc1ccc(Oc3ccccc3)cc1)CC2 [Example 91] | 0.5 to 1 µM
44 | CS(=O)(=O)Nc1ccc2c(c1)CN(C(=O)Nc1ccc(Br)cc1)CC2 [Example 93] | 0.5 to 1 µM
45 | O=C(Nc1ccc(Cl)c(C(F)(F)F)c1)NC1CCCc2ccc([N+](=O)[O-])cc21 (centres unmarked) [Example 94] | 0.5 to 1 µM
46 | CNS(=O)(=O)c1ccc2c(c1)CN(C(=O)Nc1ccc(Oc3ccccc3)cc1)CC2 [Example 95] | 0.5 to 1 µM
47 | CC(=O)Nc1ccc2c(c1)C(NC(=O)Nc1ccc(Cl)c(C(F)(F)F)c1)CCC2 (centres unmarked) [Example 97] | 0.5 to 1 µM
48 | O=C(Nc1ccccc1F)Nc1ccccc1CCO [Example 130] | 0.5 to 1 µM
49 | O=C(Nc1ccccc1CCO)Nc1cccc(Cl)c1Cl [Example 137] | 0.5 to 1 µM
50 | O=C(Nc1ccc(Cl)cc1Cl)Nc1ccccc1CCO [Example 138] | 0.5 to 1 µM
51 | O=C(Nc1ccccc1CCO)Nc1c(Cl)cccc1Cl [Example 139] | 0.5 to 1 µM
52 | CCOC(=O)c1ccccc1NC(=O)Nc1ccccc1CCO [Example 140] | 0.5 to 1 µM
53 | O=C(Nc1ccccc1CCO)Nc1ccccc1-c1ccccc1 [Example 141] | 0.5 to 1 µM
54 | CC(C)c1cccc(C(C)C)c1NC(=O)Nc1ccccc1CCO [Example 142] | 0.5 to 1 µM
55 | O=C(Nc1ccccc1CCO)Nc1ccc(Cl)cc1C(F)(F)F [Example 143] | 0.5 to 1 µM
56 | O=C(Nc1cc(Cl)ccc1Cl)Nc1ccccc1CCO [Example 162] | 0.5 to 1 µM
57 | CCOC(=O)c1ccc(NC(=O)Nc2ccccc2CCO)cc1 [Example 163] | 0.5 to 1 µM
58 | O=C(Nc1ccccc1CCO)Nc1cccc2cc(O)ccc12 [Example 167] | 0.5 to 1 µM
59 | CC(C)(C)c1ccc(C(C)(C)C)c(NC(=O)Nc2ccccc2CCO)c1 [Example 177] | 0.5 to 1 µM

Second part, the compound after the results:

Row | IC50 | Structure (SMILES)
60 | 0.5 to 1 µM | COc1ccc(COc2cc(CNC(=O)Nc3ccccc3)ccc2OC)cc1 [Example 6]
61 | 0.5 to 1 µM | COc1ccc(COc2cc(CNC(=O)Nc3ccc(F)cc3)ccc2OC)cc1 [Example 7]
62 | 0.5 to 1 µM | COc1cccc(CNC(=O)Nc2cccc(SC)c2)c1 [Example 8]
63 | 0.5 to 1 µM | COc1cccc(CNC(=O)Nc2ccccc2)c1 [Example 9]
64 | 0.5 to 1 µM | COc1cccc(CNC(=O)Nc2cccc(OC)c2)c1 [Example 10]
65 | 0.5 to 1 µM | COc1cccc(CNC(=O)Nc2ccc(F)cc2)c1 [Example 11]
66 | 0.5 to 1 µM | COc1ccc(CNC(=O)Nc2cccc(SC)c2)cc1OC [Example 12]
67 | 0.5 to 1 µM | COc1ccc(CNC(=O)Nc2ccccc2)cc1OC [Example 13]
68 | 0.5 to 1 µM | COc1cccc(NC(=O)NCc2ccc(OC)c(OC)c2)c1 [Example 14]
69 | 0.5 to 1 µM | COc1ccc(CNC(=O)Nc2ccc(F)cc2)cc1OC [Example 15]
70 | 0.1 to 0.5 µM | COc1cc(CNC(=O)Nc2cccc(SC)c2)ccc1O [Example 32]
71 | 0.1 to 0.5 µM | O=C(NCc1ccc(Cl)c(Cl)c1)Nc1ccccc1 [Example 42]
72 | 0.1 to 0.5 µM | COc1cccc(NC(=O)NCc2ccc(Cl)c(Cl)c2)c1 [Example 43]
73 | 0.1 to 0.5 µM | O=C(NCc1ccc(Cl)c(Cl)c1)Nc1ccc(F)cc1 [Example 44]
74 | 0.1 to 0.5 µM | COc1cc(CNC(=O)NCc2ccc(Br)cc2)ccc1O [Example 68]
75 | 0.1 to 0.5 µM | COc1cc2c(cc1O)CN(C(=O)Nc1ccc(Cl)c(C(F)(F)F)c1)CC2 [Example 69]
76 | 0.1 to 0.5 µM | COc1cc(CNC(=O)Nc2ccccc2F)ccc1O [Example 75]
77 | 0.1 to 0.5 µM | COc1cc(CNC(=O)NCCc2ccccc2)ccc1O [Example 77]
78 | 0.1 to 0.5 µM | COc1cc(CNC(=O)Nc2ccccc2Cl)ccc1O [Example 79]
79 | < 0.1 µM | COc1cc(CNC(=O)Nc2cc(C(F)(F)F)ccc2Cl)ccc1O [Example 80]
80 | < 0.1 µM | COc1cc(CNC(=O)Nc2cccc(Cl)c2)ccc1O [Example 81]
81 | 0.1 to 0.5 µM | NS(=O)(=O)c1ccc2c(c1)CN(C(=O)Nc1ccc(Cl)c(C(F)(F)F)c1)CC2 [Example 84]
82 | 0.1 to 0.5 µM | CS(=O)(=O)Nc1ccc2c(c1)CN(C(=O)Nc1ccc(Cl)c(C(F)(F)F)c1)CC2 [Example 92]
83 | 0.1 to 0.5 µM | O=C(Nc1cc(C(F)(F)F)ccc1Cl)Nc1ccccc1CCO [Example 144]
84 | < 0.1 µM | CN(C)c1ccc(-c2cccc(NC(=O)Nc3ccccc3CCO)c2)cc1 [Example 170]
85 | 0.1 to 0.5 µM | O=C(Nc1ccc(-c2ccc([N+](=O)[O-])cc2)cc1)Nc1ccccc1CCO [Example 178]
86 | < 0.1 µM | O=C(Nc1cccc(-c2ccc(F)cc2)c1)Nc1ccccc1CCO [Example 193]
87 | < 0.1 µM | O=C(Nc1cccc(-c2ccc(Cl)cc2)c1)Nc1ccccc1CCO [Example 194]
88 | < 0.1 µM | COc1cccc(NC(=O)Nc2cccc(-c3ccc(Cl)cc3)c2)c1CCO [Example 251]

system: not given; experiment: not given; details: not given

Row | Structure (SMILES) | melting point
89 | O=C(Nc1ccc(Cl)c(C(F)(F)F)c1)NC1CCCc2ccc(O)cc21 (centres unmarked) [Example 54] | 201 °C
